From patent publication EP0637237B1, “CALCIUM RECEPTOR-ACTIVE MOLECULES” (BRIGHAM AND WOMEN'S HOSPITAL, INC., priority 1993, dated 1994)
Like-named read-outs stand apart in the source and are kept apart here.

Assays:
[1] = Net positive charge of the molecule; type: physicochemical; settings: Table 1; effective charge at physiological pH
[2] = molecular target: T1, parathyroid cell Ca^2+ receptor (Bos taurus, UniProt P35384); type: cell-based, bovine; settings: for effect on [Ca2+]i: tested at concentrations of 100 to 300 µM
T1 sequence (P35384 20-1085): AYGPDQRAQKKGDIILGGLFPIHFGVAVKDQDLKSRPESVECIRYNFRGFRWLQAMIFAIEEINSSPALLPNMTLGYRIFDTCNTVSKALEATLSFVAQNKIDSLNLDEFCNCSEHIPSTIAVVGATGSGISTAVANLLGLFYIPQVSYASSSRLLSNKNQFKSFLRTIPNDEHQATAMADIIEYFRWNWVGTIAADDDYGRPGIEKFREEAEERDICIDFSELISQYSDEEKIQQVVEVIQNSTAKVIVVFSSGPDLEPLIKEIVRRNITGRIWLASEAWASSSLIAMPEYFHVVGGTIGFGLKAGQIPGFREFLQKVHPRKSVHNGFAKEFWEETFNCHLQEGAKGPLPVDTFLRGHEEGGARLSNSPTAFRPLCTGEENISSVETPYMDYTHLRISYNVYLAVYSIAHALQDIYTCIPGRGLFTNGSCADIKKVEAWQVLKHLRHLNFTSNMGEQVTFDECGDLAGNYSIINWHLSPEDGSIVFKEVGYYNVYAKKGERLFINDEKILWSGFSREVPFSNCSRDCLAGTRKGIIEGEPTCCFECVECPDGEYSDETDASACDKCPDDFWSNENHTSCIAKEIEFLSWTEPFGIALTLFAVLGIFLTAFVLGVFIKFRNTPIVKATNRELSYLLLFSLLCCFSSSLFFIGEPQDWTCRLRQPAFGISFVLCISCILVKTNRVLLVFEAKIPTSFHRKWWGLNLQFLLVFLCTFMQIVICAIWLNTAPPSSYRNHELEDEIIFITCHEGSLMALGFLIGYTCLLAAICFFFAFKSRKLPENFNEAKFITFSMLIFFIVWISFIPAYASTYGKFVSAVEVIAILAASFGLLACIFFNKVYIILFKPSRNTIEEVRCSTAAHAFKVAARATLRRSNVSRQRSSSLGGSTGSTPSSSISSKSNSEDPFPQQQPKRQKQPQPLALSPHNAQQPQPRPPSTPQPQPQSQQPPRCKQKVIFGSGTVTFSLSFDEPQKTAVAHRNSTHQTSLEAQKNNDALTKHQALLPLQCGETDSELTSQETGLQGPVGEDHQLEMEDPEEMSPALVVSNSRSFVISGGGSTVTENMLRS

Ca^2+ receptor = molecular target: T2, Ca^2+ receptor (Homo sapiens, UniProt P41180); experiment: Cl- current in Xenopus oocytes injected with human parathyroid poly(A)+ mRNA; type: cell-based; settings: hexacyclen 135 µM, neomycin 100 µM, NPS 382 5 mM
T2 construct: Oocytes were injected with poly(A)^+-enriched mRNA from human parathyroid tissue (hyperplastic glands from a case of secondary HPT); expressed in transfected cells; host or cells: Xenopus laevis oocytes injected with poly(A)+ mRNA from hyperplastic human parathyroid glands
T2 sequence (P41180 20-1078): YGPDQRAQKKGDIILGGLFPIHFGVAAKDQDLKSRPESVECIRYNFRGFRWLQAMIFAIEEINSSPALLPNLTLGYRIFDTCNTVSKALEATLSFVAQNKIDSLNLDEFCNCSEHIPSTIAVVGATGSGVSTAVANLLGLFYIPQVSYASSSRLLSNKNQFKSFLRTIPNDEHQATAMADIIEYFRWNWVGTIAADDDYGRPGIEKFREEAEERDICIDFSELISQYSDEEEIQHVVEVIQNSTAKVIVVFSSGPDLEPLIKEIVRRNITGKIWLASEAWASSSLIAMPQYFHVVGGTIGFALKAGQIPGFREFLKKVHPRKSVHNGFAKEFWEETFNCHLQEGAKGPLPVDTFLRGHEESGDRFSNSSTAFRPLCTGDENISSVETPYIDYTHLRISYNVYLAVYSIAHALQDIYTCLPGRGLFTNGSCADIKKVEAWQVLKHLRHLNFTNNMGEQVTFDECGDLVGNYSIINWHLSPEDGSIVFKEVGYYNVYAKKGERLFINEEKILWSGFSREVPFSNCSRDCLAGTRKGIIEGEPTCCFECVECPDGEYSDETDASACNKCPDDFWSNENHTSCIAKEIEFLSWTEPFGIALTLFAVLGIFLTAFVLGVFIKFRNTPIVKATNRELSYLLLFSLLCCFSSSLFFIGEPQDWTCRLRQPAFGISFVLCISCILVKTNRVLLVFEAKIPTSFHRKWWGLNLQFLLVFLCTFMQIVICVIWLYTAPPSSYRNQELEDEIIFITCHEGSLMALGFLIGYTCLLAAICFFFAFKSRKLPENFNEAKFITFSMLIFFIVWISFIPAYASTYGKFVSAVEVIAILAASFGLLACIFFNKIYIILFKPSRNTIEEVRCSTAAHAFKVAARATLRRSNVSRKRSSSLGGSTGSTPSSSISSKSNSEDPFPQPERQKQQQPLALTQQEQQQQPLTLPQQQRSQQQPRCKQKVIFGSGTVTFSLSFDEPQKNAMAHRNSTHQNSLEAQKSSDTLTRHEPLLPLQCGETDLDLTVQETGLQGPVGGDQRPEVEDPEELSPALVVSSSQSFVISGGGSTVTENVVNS

[3] = system: osteoclast Ca^2+ receptor; experiment: [Ca2+]i (indo-1) in single rat osteoclasts; type: cell-based; settings: for increase in [Ca2+]i in osteoclasts: screening, small responses were detected
[4] = Serum or whole blood ionized Ca2+ and PTH in rats in vivo; design: species or system Sprague-Dawley rats
Excerpt: Male Sprague-Dawley rates (200 g) were maintained on a low calcium diet for one week prior to receiving test substance or vehicle as control. Blood was collected from the tail vein three hours after the intra-peritoneal administration of NPS 467. […]

[5] = molecular target: T3, parathyroid cell Ca^2+ receptor (Homo sapiens, UniProt P41180); experiment: [Ca2+]i (fura-2) in human parathyroid cells; type: cell-based; settings: human parathyroid cells (adenoma)
T3 construct: Dissociated parathyroid cells were prepared from a parathyroid adenoma obtained by surgery from a patient with primary hyperparathyroidism; endogenous in cells; host or cells: primary human parathyroid cells from adenomatous or hyperplastic glands
T3 sequence (P41180 20-1078): T2 sequence (P41180 20-1078)
Procedure: Human parathyroid glands, obtained from patients undergoing surgical removal of parathyroid tissue for primary or uremic hyperparathyroidism (HPT), were treated similarly to bovine tissue. Glands were trimmed of excess fat and connective tissue and then minced with a fine scissors into approximate cubes of 2-3 mm. Dissociated parathyroid cells were prepared by collagenase digestion. Dissociated cells were then purified by centrifugation in Percoll buffer. The resultant parathyroid cell preparation was essentially devoid of red blood cells, adipocytes, and capillary tissue as assessed by phase contrast microscopy and Sudan black B staining. Dissociated and purified parathyroid cells were present as small clusters containing 5 to 20 cells.
The cells were then pelleted, resuspended in the same buffer lacking the ester, and incubated a further 15 min at 37°C. The cells were subsequently washed twice with PCB containing 0.5 mM CaCl2 and 0.5% BSA and maintained at room temperature (about 20°C). Immediately before use, the cells were diluted five-fold with prewarmed 0.5 mM CaCl2-PCB to obtain a final BSA concentration of 0.1%. The concentration of cells in the cuvette used for fluorescence recording was 1-2 x 10^6/ml.
The fluorescence of indicator-loaded cells was measured at 37°C in a spectrofluorimeter (Biomedical Instrumentation Group, University of Pennsylvania, Philadelphia, PA) equipped with a thermostated cuvette holder-and magnetic stirrer using excitation and emission wavelengths of 340 and 510 nm, respectively. […] Leakage of dye is dependent on temperature and most occurs within the first 2 min after warming the cells in the cuvette; dye leakage increases only very slowly thereafter. To correct the calibration for dye leakage, cells were placed in the cuvette and stirred at 37°C for 2-3 min. The cell suspension was then removed, the cells pelleted, and the supernatant returned to a clean cuvette. […] This estimate was subtracted from the apparent Fmin.

[6] = Table 1, mobilization of intracellular Ca2+ in parathyroid cells, read-out: EC50
[7] = Table 6, rat osteoclasts, indo-1, inactive = no increase in cytosolic Ca2+ at 1-5 mM
[8] = read-out: EC50 for the mobilization of intracellular Ca2+, […]

**Q.** For NC[C@H]1O[C@H](O[C@H]2[C@H](O)[C@@H](O[C@H]3O[C@H](CO)[C@@H](O)[C@H](N)[C@H]3O)[C@H](N)C[C@@H]2N)[C@H](N)[C@@H](O)[C@@H]1O [bekanamycin], which “Net (+) Charge” value [1] is on record?
**A.** Its value is “+5”.

**Q.** What about the EC50 [2, 6] of the same molecule?
**A.** Its EC50 is 200 µM.

**Q.** What about the EC50 ([2]; […]) of the same molecule?
**A.** The EC50 was 200 µM.

**Q.** With gentamicin as the molecule, how does the “Net (+) Charge” value [1] read?
**A.** Its value is “+5”.

**Q.** With C1CNCCNCCNCCNCCNCCN1 [hexacyclen, 1,4,7,10,13,16-hexaaza-cyclooctadecane] as the molecule, how does the “mobilization of intracellular Ca2+ in oocytes expressing the Ca2+ receptor” value (Ca^2+ receptor) read?
**A.** Its value is “caused the mobilization of intracellular Ca^2+”.

**Q.** What about the “Net (+) Charge” value [1] of the same molecule?
**A.** Its value is “+6”.

**Q.** What about the “fold increase in potency over pentaethylenehexamine (straight chain analog)” value [2] of the same molecule?
**A.** Its value is 25 fold.

**Q.** What about the EC50 [2, 6] of the same molecule?
**A.** Its EC50 is 20 µM.

**Q.** What about the EC50 ([2]; […]) of the same molecule?
**A.** Its EC50 is 20 µM.

**Q.** For NCCCNCCCCNCCCNCCCN(O)CCCNC(=O)Cc1c[nH]c2ccccc12 [NPS 017], which “EC50(µM) OSTEOCLAST” value [3, 7] is on record?
**A.** Its value is “inactive”.

**Q.** Which “increase in [Ca2+]i in osteoclasts” value [3] does the source give for COc1ccc(CCN(C)CCCC(C#N)(c2ccc(OC)c(OC)c2)C(C)C)cc1OC (centres unmarked) [verapamil] here?
**A.** Its value is “none of these caused any large increase in [Ca^2+]i”.

**Q.** What about the “increase in [Ca2+]i” value ([3]; verapamil 100 µM) of the same molecule?
**A.** The value was “no detectable increase in [Ca^2+]i”.

**Q.** With NCCCN(CCCN)CCCN(CCCN)CCCCN(CCCN)CCCN(CCCN)CCCN [NPS 381, N^1,N^1,N^5,N^10,N^14,N^14-hexakis-(3-aminopropyl) spermine] as the molecule, how does the “Net (+) Charge” value [1] read?
**A.** Its value is “+10”.

**Q.** For NCCCN1CCCN(CCCN)CCN(CCCN)CCCN(CCCN)CC1 [NPS 383], which “Net (+) Charge” value [1] is on record?
**A.** The value was “+8”.

**Q.** Which “Net (+) Charge” value [1] does the source give for NCCNCCNCCNCCN [tetraethylenepentamine] here?
**A.** The value was “+5”.

**Q.** What does the source list for NC(=O)C[C@H](NC(=O)Cc1c[nH]c2cccc(O)c12)C(=O)NCCCCCNCCCNCCCNC(=O)[C@@H](N)CCCN=C(N)N [Argiotoxin 659]?
**A.** Net (+) Charge [1]: +4; effect on [Ca2+]i [2]: evoked transient increases in [Ca^2+]i

**Q.** For NC(=O)C[C@H](NC(=O)Cc1ccc(O)cc1O)C(=O)NCCCCCNCCCNCCCNC(=O)[C@@H](N)CCCN=C(N)N [argiotoxin 636], which “effect on [Ca2+]i” value [2] is on record?
**A.** Its value is “without effect”.

**Q.** With NCCCNCCCCNCCCNCCCNCCCNC(=O)Cc1c[nH]c2ccccc12 [NPS 019] as the molecule, how does the EC50 [3, 7] read?
**A.** Its EC50 is greater than 300 µM.

**Q.** Which “Net (+) Charge” value [1] does the source give for NCCNCCNCCN [triethylenetetramine] here?
**A.** The value was “+4”.

**Q.** Which “Net (+) Charge” value [1] does the source give for [H]/N=C(/N)N[C@H]1[C@H](O)[C@@H](O)[C@H](O[C@@H]2O[C@@H](C)[C@](O)(C=O)[C@H]2O[C@@H]2O[C@@H](CO)[C@H](O)[C@@H](O)[C@@H]2NC)[C@@H](N/C(N)=N\[H])[C@@H]1O [streptomycin] here?
**A.** The value was “+3”.

**Q.** What about the EC50 [2, 6] of the same molecule?
**A.** The EC50 was 600 µM.

**Q.** And the EC50 ([2]; […])?
**A.** The EC50 was 600 µM.

**Q.** With COc1cccc(C(C)NCCCc2ccccc2)c1 (racemic) [NPS 467] as the molecule, how does the “time course of the hypocalcemic effect” value ([4]; Fig. 40 (25 mg/kg)) read?
**A.** Its value is “maximal within three hours and returned toward control levels after 24 hours”.

**Q.** What about the “serum albumin or phosphate levels” value ([4]; any of the doses examined) of the same molecule?
**A.** Its value is “no change in serum albumin or phosphate levels”.

**Q.** And the “serum or whole blood Ca2+” value ([4]; low calcium diet, three hours after intra-peritoneal administration, Fig. 38)?
**A.** The value was “dose-dependent reduction in serum or whole blood Ca^2+”.

**Q.** What about the “serum ionized calcium after oral administration” value ([4]; oral, dose-response curve, Fig. 44) of the same molecule?
**A.** The value was “lowers serum ionized calcium in rats when administered orally”.

**Q.** And the “circulating levels of PTH” value ([4]; preliminary studies, doses effective in lowering blood Ca2+, Fig. 39)?
**A.** The value was “dose-dependent reduction in circulating levels of PTH”.

**Q.** And the EC50 [2, 8]?
**A.** The EC50 was less than 5 µM.

**Q.** For COc1cccc([C@@H](C)NCCCc2ccccc2Cl)c1 [NPS R-568], which EC50 [5] is on record?
**A.** The EC50 was 3 µM.

**Q.** And the EC50 ([2]; Table 6, […], fura-2, inactive = no increase in cytosolic Ca2+ at 1-5 mM, read-out: EC50(µM) PARATHYROID)?
**A.** Its EC50 is 0.6 µM.

**Q.** Which “effect on cytosolic Ca2+ transients” value ([2]; tested at a concentration of 500 µM) does the source give for CCC[C@@H]1C[C@@H](C(=O)N[C@@H]([C@H]2O[C@H](SC)[C@H](O)[C@@H](O)[C@H]2O)[C@@H](C)O)N(C)C1 [lincomycin] here?
**A.** The value was “without effect”.

**Q.** With NCCCCNCCCN [spermidine] as the molecule, how does the “increase in [Ca2+]i, % of that evoked by a maximal concentration of extracellular Ca2+” value ([3]; concentration of 1 mM) read?
**A.** The value was “about 10%”.

**Q.** And the “increase in [Ca2+]i in osteoclasts” value [3]?
**A.** Its value is “none of these caused any large increase in [Ca^2+]i”.

**Q.** What about the “Net (+) Charge” value [1] of the same molecule?
**A.** Its value is “+3”.

**Q.** What about the EC50 [2] of the same molecule?
**A.** Its EC50 is 2000 µM.

**Q.** With COc1cccc(C(C)NCCCc2ccccc2Cl)c1 (racemic) [NPS 568] as the molecule, how does the EC50 [2, 8] read?
**A.** Its EC50 is less than 5 µM.

**Q.** For NCCCCCCCCCCCCN [1,12-diaminododecane (DADD), 1,12-diaminododecane], which “Net (+) Charge” value [1] is on record?
**A.** Its value is “+2”.

**Q.** And the EC50 ([2]; read-out: EC50)?
**A.** The EC50 was 3000 µM.

**Q.** With “N^1,N^1,N^5,N^14,N^14-tetrakis-(3-aminopropyl)spermine [NPS 382]” as the molecule, how does the “mobilization of intracellular Ca2+ in oocytes expressing the Ca2+ receptor” value (Ca^2+ receptor) read?
**A.** The value was “effective”.

**Q.** And the “Net (+) Charge” value [1]?
**A.** The value was “+8”.
